Source: ChEMBL document CHEMBL1134748, “Identification and characterization of a potential ischemia-selective N-methyl-D-aspartate (NMDA) receptor ion-channel blocker, CNS 5788” (Bioorg Med Chem Lett, 2001)

What was measured:
[1] = Cardiac sodium channel blocking activity by [14C]guanidinium flux assay; type: functional
[2] = biological target: Glutamate [NMDA] receptor; assay: In vitro displacement of [3H]MK-801 from N-methyl-D-aspartate glutamate receptor; type: protein-complex assay
[3] = biological target: Sodium channel alpha subunits; brain (Types I, II, III) (Homo sapiens, UniProt P35498+Q99250+Q9NY46); assay: Neuronal sodium channel blocking activity by [14C]guanidinium flux assay; type: functional
[4] = Lowest effective intravenous dose required to observe the behavioral effects (excitation); type: functional
Rattus norvegicus [5] = assay: Compound was tested in rotarod motor assay and the effective intravenous dose required to fall from the rod was reported.; type: functional
Rattus norvegicus [6] = assay: Compound was tested in hypoxia -ischemia reduction model for percent reduction in lesion volume at the dose 4 mg/kg (iv); type: functional
Rattus norvegicus [7] = assay: Tested in rat middle cerebral artery occlusion model (MACO model) and percent reduction in total lesion volume at the dose of 1.5 mg/kg (combination ip and iv); type: functional; conditions: route intraperitoneal
Mus musculus = species: Mus musculus; assay: Effective dose required to block the audiogenic seizures.; type: functional
[8] = Half life value of the compound; type: ADME; conditions: rat
Rattus norvegicus [9] = assay: Compound was tested in hypoxia -ischemia reduction model for percent reduction in lesion volume at the dose 10 mg/kg (ip)
Rattus norvegicus [10] = assay: Tested in rat middle cerebral artery occlusion model (MACO model) and percent reduction in total lesion volume at the dose of 4.5 mg/kg (combination ip and iv); conditions: route intraperitoneal
Rattus norvegicus [11] = assay: Compound was tested in hypoxia -ischemia reduction model for percent reduction in lesion volume at the dose 20 mg/kg (ip)

| SMILES | IC50 [1] [µM] | Ki [2] [µM] | IC50 [3] [µM] | half-life [8] [min] | T1/2 [8] [min] | Dose [4] [mg/kg] | ED50 (Rattus norvegicus [5]) [mg/kg] | Reduction (Rattus norvegicus [6]) [%] | Reduction (Rattus norvegicus [7]) [%] | ED50 (Mus musculus) [mg/kg] | Reduction (Rattus norvegicus [9]) [%] | Reduction (Rattus norvegicus [10]) [%] | Reduction (Rattus norvegicus [11]) [%] |
| --- | --- | --- | --- | --- | --- | --- | --- | --- | --- | --- | --- | --- | --- |
| CSc1ccc(Cl)c(NC(=N)N(C)c2cccc([S+](C)[O-])c2)c1 (single isomer, unassigned; (-)) | 26 | 0.321 | > 25 | – | – | – | – | – | – | – | – | – | – |
| CSc1cccc(N(C)C(=N)Nc2cc(SC)ccc2Cl)c1 [CNS-5161] | 2.25 | – | 1.75 | – | – | 0.25 | 0.14 | 74 | 33 | 0.9 | – | – | – |
| CSc1ccc(Cl)c(NC(=N)N(C)c2cccc([S+](C)[O-])c2)c1 (stereo in doubt; 10) | 26 | 0.179 | 83.1 | 31 | – | 4 | 8.8 | – | – | 12 | 60 | 32 | 100 |
| CSc1ccc(Cl)c(NC(=N)N(C)c2cccc([S+](C)[O-])c2)c1 (stereo in doubt; 15) | 23.7 | 0.233 | > 25 | – | 32 | – | – | – | – | – | – | – | – |

The remaining compounds from weak to strong by IC50 [1], led by results:

| IC50 [1] [µM] | Ki [2] [µM] | IC50 [3] [µM] | half-life [8] [min] | T1/2 [8] [min] | SMILES | Dose [4] [mg/kg] | ED50 (Rattus norvegicus [5]) [mg/kg] | Reduction (Rattus norvegicus [6]) [%] | Reduction (Rattus norvegicus [7]) [%] | ED50 (Mus musculus) [mg/kg] | Reduction (Rattus norvegicus [9]) [%] | Reduction (Rattus norvegicus [10]) [%] | Reduction (Rattus norvegicus [11]) [%] |
| --- | --- | --- | --- | --- | --- | --- | --- | --- | --- | --- | --- | --- | --- |
| 81 | – | > 25 | – | – | CN(C(=N)Nc1cc([S+](C)[O-])ccc1Cl)c1cccc([S+](C)[O-])c1 (centres undefined) | – | – | – | – | – | – | – | – |
| 29.5 | 0.834 | > 25 | – | – | CSc1cccc(N(C)C(=N)Nc2cc([S+](C)[O-])ccc2Cl)c1.Cl (centres undefined) | – | – | – | – | – | – | – | – |
